# According to patent US11178871B2, “Herbicidal pyrimidine compounds” (BASF SE, priority 2016, dated 2021):
# Legend:
# Type in all cases: in vivo
# Echinocloa crus-galli [1] = test: greenhouse test, pre-emergence treatment, ECHCG
# Excerpt: (§1) The culture containers used were plastic flowerpots containing loamy sand with approximately 3.0% of humus as the substrate. The seeds of the test plants were sown separately for each species.
# (§2) For the pre-emergence treatment, the active ingredients, which had been suspended or emulsified in water, were applied directly after sowing by means of finely distributing nozzles. The containers were irrigated gently to promote germination and growth and subsequently covered with transparent plastic hoods until the plants had rooted. This cover caused uniform germination of the test plants, unless this had been impaired by the active ingredients.
# (§3) Depending on the species, the plants were kept at 10-25° C. or 20-35° C., respectively.
# (§4) The test period extended over 2 to 4 weeks. During this time, the plants were tended, and their response to the individual treatments was evaluated.
# (§5) Evaluation was carried out using a scale from 0 to 100. 100 means no emergence of the plants, or complete destruction of at least the aerial moieties, and 0 means no damage, or normal course of growth. A good herbicidal activity is given at values of at least 70 and a very good herbicidal activity is given at values of at least 85.
# (§6) The plants used in the greenhouse experiments were of the following species: […]
# Apera spica-venti = test: greenhouse test, pre-emergence treatment, APESV
# Excerpt: as §1, §2, §3, §4, §5, §6
# Echinocloa crus-galli [2] = test: greenhouse test, post-emergence treatment, ECHCG; settings: post-emergence
# Excerpt: as §1
# (§7) For the post-emergence treatment, the test plants were first grown to a height of 3 to 15 cm, depending on the plant habit, and only then treated with the active ingredients which had been suspended or emulsified in water. For this purpose, the test plants were either sown directly and grown in the same containers, or they were first grown separately as seedlings and transplanted into the test containers a few days prior to treatment.
# as §3, §4, §5, §6
# Alopecurus myosuroides = test: greenhouse test, post-emergence treatment, ALOMY; settings: post-emergence
# Excerpt: as §1, §7, §3, §4, §5, §6
# Avena fatua = test: greenhouse test, post-emergence treatment, AVEFA
# Excerpt: as §1, §7, §3, §4, §5, §6
smiles,measurement,setting,value
OC(Cc1nc(C2CC2)ncc1-c1ccccc1Cl)c1nc(Cl)ccc1Cl (stereo not shown) [Ex. 256],herbicidal activity,Echinocloa crus-galli [1]; 2000 g/ha,very good (a very good herbicidal activity is given at values of at least 85)
same,herbicidal activity,Apera spica-venti; 2000 g/ha,very good (a very good herbicidal activity is given at values of at least 85)
same,herbicidal activity,Echinocloa crus-galli [2]; 2000 g/ha,very good (a very good herbicidal activity is given at values of at least 85)
Cc1ccc(-c2nc(C3CC3)ncc2-c2ccccc2Cl)o1 [Ex. 26],herbicidal activity,Echinocloa crus-galli [1]; 2000 g/ha,very good (a very good herbicidal activity is given at values of at least 85)
same,herbicidal activity,Apera spica-venti; 2000 g/ha,very good (a very good herbicidal activity is given at values of at least 85)
same,herbicidal activity,Alopecurus myosuroides; 2000 g/ha,very good (a very good herbicidal activity is given at values of at least 85)
same,herbicidal activity,Echinocloa crus-galli [2]; 2000 g/ha,very good (a very good herbicidal activity is given at values of at least 85)
Cc1ncoc1-c1nc(C2CC2)ncc1-c1ccc(C(F)(F)F)cc1Cl [Ex. 264],herbicidal activity,Alopecurus myosuroides; 500 g/ha,very good (a very good herbicidal activity is given at values of at least 85)
same,herbicidal activity,Avena fatua; 500 g/ha,very good (a very good herbicidal activity is given at values of at least 85)
Brc1ccccc1-c1cnc(C2CC2)nc1-c1ccco1 [Ex. 34],herbicidal activity,Echinocloa crus-galli [1]; 2000 g/ha,good (A good herbicidal activity is given at values of at least 70)
same,herbicidal activity,Apera spica-venti; 2000 g/ha,very good (a very good herbicidal activity is given at values of at least 85)
same,herbicidal activity,Alopecurus myosuroides; 2000 g/ha,good (A good herbicidal activity is given at values of at least 70)
same,herbicidal activity,Echinocloa crus-galli [2]; 2000 g/ha,very good (a very good herbicidal activity is given at values of at least 85)
Fc1cccc(Cl)c1-c1cnc(C2CC2)nc1-c1ccco1 [Ex. 60],herbicidal activity,Alopecurus myosuroides; 1000 g/ha,very good (a very good herbicidal activity is given at values of at least 85)
same,herbicidal activity,Avena fatua; 1000 g/ha,very good (a very good herbicidal activity is given at values of at least 85)
Cc1ccoc1-c1nc(C2CC2)ncc1-c1ccccc1I [Ex. 77],herbicidal activity,Alopecurus myosuroides; 1000 g/ha,very good (a very good herbicidal activity is given at values of at least 85)
same,herbicidal activity,Avena fatua; 1000 g/ha,very good (a very good herbicidal activity is given at values of at least 85)
CCOP(=O)(OCC)C(OS(C)(=O)=O)c1nc(C2CC2)ncc1-c1ccccc1Cl (stereo not shown) [Ex. 89],herbicidal activity,Apera spica-venti; 2000 g/ha,good (A good herbicidal activity is given at values of at least 70)
same,herbicidal activity,Alopecurus myosuroides; 2000 g/ha,very good (a very good herbicidal activity is given at values of at least 85)
same,herbicidal activity,Avena fatua; 2000 g/ha,good (A good herbicidal activity is given at values of at least 70)
Clc1ccccc1-c1cnc(C2CC2)nc1COCc1ccccc1 [Ex. 21],herbicidal activity,Apera spica-venti; 1000 g/ha,very good (a very good herbicidal activity is given at values of at least 85)
same,herbicidal activity,Alopecurus myosuroides; 1000 g/ha,very good (a very good herbicidal activity is given at values of at least 85)
Clc1ccccc1-c1cnc(C2CC2)nc1CC1=CCOCC1 [Ex. 104],herbicidal activity,Echinocloa crus-galli [1]; 2000 g/ha,good (A good herbicidal activity is given at values of at least 70)
same,herbicidal activity,Apera spica-venti; 2000 g/ha,very good (a very good herbicidal activity is given at values of at least 85)
same,herbicidal activity,Alopecurus myosuroides; 2000 g/ha,very good (a very good herbicidal activity is given at values of at least 85)
same,herbicidal activity,Echinocloa crus-galli [2]; 2000 g/ha,good (A good herbicidal activity is given at values of at least 70)
CC(C)=CC=Cc1nc(C2CC2)ncc1-c1ccccc1Cl [Ex. 224],herbicidal activity,Echinocloa crus-galli [1]; 2000 g/ha,very good (a very good herbicidal activity is given at values of at least 85)
same,herbicidal activity,Apera spica-venti; 2000 g/ha,very good (a very good herbicidal activity is given at values of at least 85)
same,herbicidal activity,Alopecurus myosuroides; 2000 g/ha,very good (a very good herbicidal activity is given at values of at least 85)
same,herbicidal activity,Echinocloa crus-galli [2]; 2000 g/ha,very good (a very good herbicidal activity is given at values of at least 85)
Cc1ccc(-c2nc(C3CC3)ncc2-c2ccccc2C)o1 [Ex. 120],herbicidal activity,Alopecurus myosuroides; 1000 g/ha,good (A good herbicidal activity is given at values of at least 70)
Fc1ccc(-c2cnc(C3CC3)nc2-c2cc3cc(Cl)ccc3o2)c(Cl)c1 [Ex. 44],herbicidal activity,Echinocloa crus-galli [2]; 1000 g/ha,very good (a very good herbicidal activity is given at values of at least 85)
same,herbicidal activity,Avena fatua; 1000 g/ha,very good (a very good herbicidal activity is given at values of at least 85)
OC(c1nc(C2CC2)ncc1-c1ccccc1Cl)C(O)c1c(Cl)ccc(Cl)c1Cl (stereo not shown) [Ex. 240],herbicidal activity,Echinocloa crus-galli [1]; 2000 g/ha,very good (a very good herbicidal activity is given at values of at least 85)
same,herbicidal activity,Apera spica-venti; 2000 g/ha,very good (a very good herbicidal activity is given at values of at least 85)
Cc1ccc(-c2nc(C3CC3)ncc2-c2cc(F)c(F)cc2Cl)o1 [Ex. 79],herbicidal activity,Alopecurus myosuroides; 1000 g/ha,very good (a very good herbicidal activity is given at values of at least 85)
same,herbicidal activity,Avena fatua; 1000 g/ha,very good (a very good herbicidal activity is given at values of at least 85)
OC1(c2nc(C3CC3)ncc2-c2ccccc2Cl)CCC1 [Ex. 143],herbicidal activity,Echinocloa crus-galli [2]; 2000 g/ha,very good (a very good herbicidal activity is given at values of at least 85)
OC(Cc1nc(C2CC2)ncc1-c1ccccc1Cl)c1ccccc1 (stereo not shown) [Ex. 66],herbicidal activity,Echinocloa crus-galli [2]; 2000 g/ha,very good (a very good herbicidal activity is given at values of at least 85)
CC(=O)OC(c1nc(C2CC2)ncc1-c1ccccc1Cl)C(C)(C)OC(C)=O (stereo not shown) [Ex. 274],herbicidal activity,Echinocloa crus-galli [1]; 1000 g/ha,very good (a very good herbicidal activity is given at values of at least 85)
same,herbicidal activity,Apera spica-venti; 1000 g/ha,very good (a very good herbicidal activity is given at values of at least 85)
same,herbicidal activity,Alopecurus myosuroides; 1000 g/ha,very good (a very good herbicidal activity is given at values of at least 85)
same,herbicidal activity,Echinocloa crus-galli [2]; 1000 g/ha,very good (a very good herbicidal activity is given at values of at least 85)
Clc1ccccc1-c1cnc(C2CC2)nc1CCc1ccco1 [Ex. 102],herbicidal activity,Echinocloa crus-galli [2]; 2000 g/ha,very good (a very good herbicidal activity is given at values of at least 85)
CC(C)(O)c1nc(C2CC2)ncc1-c1ccc(F)cc1Cl [Ex. 135],herbicidal activity,Alopecurus myosuroides; 500 g/ha,good (A good herbicidal activity is given at values of at least 70)
OC1(Cc2nc(C3CC3)ncc2-c2ccccc2Br)COC1 [Ex. 155],herbicidal activity,Alopecurus myosuroides; 2000 g/ha,very good (a very good herbicidal activity is given at values of at least 85)
same,herbicidal activity,Echinocloa crus-galli [2]; 2000 g/ha,very good (a very good herbicidal activity is given at values of at least 85)
FC(F)(F)c1ccc(-c2nc(C3CC3)ncc2-c2ccccc2Cl)s1 [Ex. 216],herbicidal activity,Apera spica-venti; 1000 g/ha,very good (a very good herbicidal activity is given at values of at least 85)
same,herbicidal activity,Alopecurus myosuroides; 1000 g/ha,very good (a very good herbicidal activity is given at values of at least 85)
same,herbicidal activity,Echinocloa crus-galli [2]; 1000 g/ha,very good (a very good herbicidal activity is given at values of at least 85)
COc1cccc(-c2nc(C3CC3)ncc2-c2ccccc2Cl)c1 [Ex. 125],herbicidal activity,Echinocloa crus-galli [2]; 500 g/ha,very good (a very good herbicidal activity is given at values of at least 85)
OC1(Cc2nc(C3CC3)ncc2-c2ccccc2Cl)COC1 [Ex. 73],herbicidal activity,Alopecurus myosuroides; 2000 g/ha,good (A good herbicidal activity is given at values of at least 70)
Cc1ccc(-c2nc(C3CC3)ncc2-c2cc(F)ccc2C)o1 [Ex. 110],herbicidal activity,Echinocloa crus-galli [2]; 1000 g/ha,good (A good herbicidal activity is given at values of at least 70)
Cc1nc(-c2nc(C3CC3)ncc2-c2ccccc2Br)co1 [Ex. 288],herbicidal activity,Alopecurus myosuroides; 2000 g/ha,very good (a very good herbicidal activity is given at values of at least 85)
COC(=O)C(O)c1nc(C2CC2)ncc1-c1ccccc1Cl (stereo not shown) [Ex. 220],herbicidal activity,Echinocloa crus-galli [1]; 1000 g/ha,good (A good herbicidal activity is given at values of at least 70)
N#Cc1csc(-c2nc(C3CC3)ncc2-c2ccccc2Cl)c1 [Ex. 126],herbicidal activity,Echinocloa crus-galli [2]; 2000 g/ha,very good (a very good herbicidal activity is given at values of at least 85)
Cc1ccc(-c2nc(C3CC3)ncc2-c2ccc(F)cc2I)o1 [Ex. 81],herbicidal activity,Alopecurus myosuroides; 1000 g/ha,very good (a very good herbicidal activity is given at values of at least 85)
same,herbicidal activity,Avena fatua; 1000 g/ha,very good (a very good herbicidal activity is given at values of at least 85)
Clc1ccccc1-c1cnc(C2CC2)nc1-c1cocn1 [Ex. 215],herbicidal activity,Apera spica-venti; 2000 g/ha,very good (a very good herbicidal activity is given at values of at least 85)
same,herbicidal activity,Alopecurus myosuroides; 2000 g/ha,very good (a very good herbicidal activity is given at values of at least 85)
CCc1ncc(-c2ccccc2Br)c(-c2ccoc2)n1 [Ex. 63],herbicidal activity,Echinocloa crus-galli [2]; 1000 g/ha,very good (a very good herbicidal activity is given at values of at least 85)
CC(C)(C)/C=C/c1nc(C2CC2)ncc1-c1ccccc1Cl [Ex. 95],herbicidal activity,Apera spica-venti; 2000 g/ha,very good (a very good herbicidal activity is given at values of at least 85)
same,herbicidal activity,Alopecurus myosuroides; 2000 g/ha,very good (a very good herbicidal activity is given at values of at least 85)
same,herbicidal activity,Echinocloa crus-galli [2]; 2000 g/ha,very good (a very good herbicidal activity is given at values of at least 85)
O=C(O)C(O)Cc1nc(C2CC2)ncc1-c1ccccc1Cl (stereo not shown) [Ex. 97],herbicidal activity,Apera spica-venti; 2000 g/ha,very good (a very good herbicidal activity is given at values of at least 85)
same,herbicidal activity,Echinocloa crus-galli [2]; 2000 g/ha,very good (a very good herbicidal activity is given at values of at least 85)
CC(O)c1nc(C2CC2)ncc1-c1ccc(F)cc1Cl (stereo not shown) [Ex. 112],herbicidal activity,Echinocloa crus-galli [2]; 1000 g/ha,good (A good herbicidal activity is given at values of at least 70)
Clc1ccccc1-c1cnc(C2CC2)nc1/C=C/c1ccco1 [Ex. 94],herbicidal activity,Apera spica-venti; 2000 g/ha,very good (a very good herbicidal activity is given at values of at least 85)
same,herbicidal activity,Alopecurus myosuroides; 2000 g/ha,very good (a very good herbicidal activity is given at values of at least 85)
same,herbicidal activity,Avena fatua; 2000 g/ha,very good (a very good herbicidal activity is given at values of at least 85)
